For experiment [1], the system named is human pancreatic cancer cells BxPC3. Briefly: MTT growth inhibition, BxPc3 cells. The class given is cell-based. To be noted: Homo sapiens, BXPC-3, 72 h after treatment, read-out: Drug concentration (IC50) at which 50% cancer cells survived. The text has this:
(§1) Cell lines and cell culture: human lung cancer cells A549 and H460, human breast cancer cells MCF-7 and MDA-MB-231, human gastric cancer cells BGC-823, human prostate cancer cells PC-3, human chronic leukemia cells K562, human lymphoma cells U937, human liver cancer cells SMMC7721 and HepG2, human colon cancer cells HT29, human pancreatic cancer cells PANC-1 and BxPC3, human cervical cancer Hela cell lines, human brain tumor cells Daoy, human neuroma cells D54 and human oral epidermoid cancer cells KBV200 line with strong drug resistance, mouse melanoma cells B16, and highly metastatic Lewis lung cancer cell lines were purchased from American Type Culture Collection of the U.S. These cells were cultured with DMEM and RPMI-1640 culture solutions separately.
(§2) The procedure was as follows:
(§3) (1) 0.25% trypsin was used to digest cancer cells in a logarithmic growth phase to prepare a single-cell suspension, the concentration of cells was adjusted to 5×10^4/mL, and the adjusted suspension was inoculated into a 96-well culture plate with 100 μl per well;
(§4) (2) The culture plate was transferred into a 37° C. incubator with a saturated humidity and 5% of CO2 and cultured for 24 h; the compounds and the intermediates thereof obtained in embodiments 1-7 and the compound as represented by formula (IIIa) or the positive control anti-cancer drug with the concentration of 1-1000 μM/L were added to enable the final concentration to be 0.1-1500 μM/L. Control wells (only added with 200 μl of cell suspension) and drug-free blank control wells (containing the solvent of 0.01% DMSO) were set, each group included 8 wells, and the plate was placed into the 37° C. incubator with saturated humidity and 5% of CO2 for culturing;
(§5) (3) The 96-well plate was taken out at 48 h and 72 h after dosing, the original culture medium was carefully removed by suction, 100 μl of serum-free DMEM culture medium and 10 μl of MTT (5 mg/mL) solution were added in each well. The plate was continuously cultured for another 4 h and then the culture was terminated;
(§6) (4) The supernatant in the wells was carefully removed by suction, each well was added with 150 μl of DMSO and shaked at room temperature for 10-15 min to fully dissolve crystals.
(§7) (5) Colorimetric analysis: the wavelength was selected as 570 nm, the light absorbance (A value) of each well was determined on the microplate reader and the results were recorded; the experiment was repeated for three times;
(§8) (6) the experimental results were calculated according to the following formula: relative survival rate=(A value of each experimental group/A value of cell control group)×100%
(§9) Calculation of median-effect concentration (IC50, namely the drug concentration at which the inhibition rate is 50%, also known as half inhibitory concentration):
(§10) IC50 of the detected component was calculated by using a regression equation.

The subject of experiment [2] is human colon cancer cells HT29. Briefly: MTT growth inhibition, HT29 cells. The class given is cell-based. Particulars: HT-29, 72 h after treatment, read-out: Drug concentration (IC50) at which 50% cancer cells survived.
From the text: as §1, §2, §3, §4, §5, §6, §7, §8, §9, §10

Experiment [3] relates to human cervical cancer Hela cell lines. Briefly: MTT growth inhibition, Hela cells. The format is cell-based. Particulars: Homo sapiens, 72 h after treatment, read-out: Drug concentration (IC50) at which 50% cancer cells survived.
From the text: as §1, §2, §3, §4, §5, §6, §7, §8, §9, §10

For experiment [4], the system named is human liver cancer cells HepG2. Put plainly: MTT growth inhibition, HepG2 cells. The format is cell-based. Particulars: 72 h after treatment, read-out: Drug concentration (IC50) at which 50% cancer cells survived.
From the text: as §1, §2, §3, §4, §5, §6, §7, §8, §9, §10

Experiment [5] relates to Caski human cervical cancer cells. Briefly: MTT growth inhibition, Caski cells. The class given is cell-based. To be noted: Ca-Ski, 72 h after treatment, read-out: Drug concentration (IC50) at which 50% cancer cells survived.
The test system of the next experiment is human neuroma cells D54. Briefly: MTT growth inhibition, D54 cells. The class given is cell-based. Particulars: Homo sapiens, 72 h after treatment, read-out: Drug concentration (IC50) at which 50% cancer cells survived.
From the text: as §1, §2, §3, §4, §5, §6, §7, §8, §9, §10

The test system of experiment [6] is highly metastatic Lewis lung cancer cell lines. Put plainly: MTT growth inhibition, LLC cells. The format is cell-based, mouse. Particulars: Mus musculus, Lewis lung carcinoma, 72 h after treatment, read-out: Drug concentration (IC50) at which 50% cancer cells survived.
From the text: as §1, §2, §3, §4, §5, §6, §7, §8, §9, §10

The test system of experiment [7] is human brain tumor cells Daoy. Put plainly: MTT growth inhibition, Daoy cells. The class given is cell-based. To be noted: Homo sapiens, 72 h after treatment, read-out: Drug concentration (IC50) at which 50% cancer cells survived.
From the text: as §1, §2, §3, §4, §5, §6, §7, §8, §9, §10

The subject of experiment [8] is human breast cancer cells MDA-MB-231. Briefly: MTT growth inhibition, MDA-MB-231 cells. To be noted: 72 h after treatment, read-out: Drug concentration (IC50) at which 50% cancer cells survived. The format is cell-based.
From the text: as §1, §2, §3, §4, §5, §6, §7, §8, §9, §10

In experiment [9] the test system is human breast cancer cells MCF-7. Briefly: MTT growth inhibition, MCF-7 cells. The format is cell-based. Particulars: MCF7, 72 h after treatment, read-out: Drug concentration (IC50) at which 50% cancer cells survived.
From the text: as §1, §2, §3, §4, §5, §6, §7, §8, §9, §10

The test system of experiment [10] is human lymphoma cells U937. Briefly: MTT growth inhibition, U937 cells. The format is cell-based. To be noted: Homo sapiens, U-937, 72 h after treatment, read-out: Drug concentration (IC50) at which 50% cancer cells survived. How it is done: as §2, §5, §6, §7, §8, §10
The subject of a further experiment is mouse melanoma cells B16. Briefly: MTT growth inhibition, B16 cells. The class given is cell-based. Particulars: Mus musculus, 72 h after treatment, read-out: Drug concentration (IC50) at which 50% cancer cells survived.
From the text: as §1, §2, §3, §4, §5, §6, §7, §8, §9, §10

Experiment [11] deals with human prostate cancer cells PC-3. Briefly: MTT growth inhibition, PC-3 cells. The class given is cell-based. Particulars: 72 h after treatment, read-out: Drug concentration (IC50) at which 50% cancer cells survived.
From the text: as §1, §2, §3, §4, §5, §6, §7, §8, §9, §10

The subject of experiment [12] is human lung cancer cells H460. Put plainly: MTT growth inhibition, H460 cells. The format is cell-based. Particulars: NCI-H460, 72 h after treatment, read-out: Drug concentration (IC50) at which 50% cancer cells survived.
From the text: as §1, §2, §3, §4, §5, §6, §7, §8, §9, §10

The subject of experiment [13] is human gastric cancer cells BGC-823. Put plainly: MTT growth inhibition, BGC-823 cells. Particulars: 72 h after treatment, read-out: Drug concentration (IC50) at which 50% cancer cells survived. The class given is cell-based.
From the text: as §1, §2, §3, §4, §5, §6, §7, §8, §9, §10

For experiment [14], the system named is human oral epidermoid cancer cells KBV200. Put plainly: MTT growth inhibition, KBV200 cells. The class given is cell-based. Particulars: 72 h after treatment, read-out: Drug concentration (IC50) at which 50% cancer cells survived.
From the text: as §1, §2, §3, §4, §5, §6, §7, §8, §9, §10

For experiment [15], the system named is human lung cancer cells A549. Briefly: MTT growth inhibition, A549 cells. The class given is cell-based. To be noted: 72 h after treatment, read-out: Drug concentration (IC50) at which 50% cancer cells survived.
From the text: as §1, §2, §3, §4, §5, §6, §7, §8, §9, §10

Experiment [16] deals with human chronic leukemia cells K562. Briefly: MTT growth inhibition, K562 cells. The format is cell-based. To be noted: 72 h after treatment, read-out: Drug concentration (IC50) at which 50% cancer cells survived.
From the text: as §1, §2, §3, §4, §5, §6, §7, §8, §9, §10

Experiment [17] deals with human liver cancer cells SMMC7721. Briefly: MTT growth inhibition, SMMC7721 cells. The class given is cell-based. To be noted: SMMC-7721, S-7721 (SMMC7721), 72 h after treatment, read-out: Drug concentration (IC50) at which 50% cancer cells survived.
From the text: as §1, §2, §3, §4, §5, §6, §7, §8, §9, §10

Experiment [18] relates to human pancreatic cancer cells PANC-1. Put plainly: MTT growth inhibition, PANC-1 cells. The class given is cell-based. To be noted: 72 h after treatment, read-out: Drug concentration (IC50) at which 50% cancer cells survived.
From the text: as §1, §2, §3, §4, §5, §6, §7, §8, §9, §10

Take `O=C(O)c1cc2cc(Cl)ccc2oc1=O` [Compound IIIc, 6-chlorocoumarin-3-carboxylic acid]: the IC50 in [1] amounted to 500 µM; in experiment [2], 700 µM; in experiment [3], 600 µM; in experiment [4], 300 µM; in experiment [5], 400 µM; in the experiment with human neuroma cells D54, 300 µM. Also, the IC50 is 400 µM in [6]; 400 µM in [7]; 500 µM in experiment [8]; 300 µM in experiment [9]; 500 µM in [10]; 600 µM in the experiment with mouse melanoma cells B16. Besides, the IC50 in experiment [11] was 500 µM; in experiment [12] it was 350 ± 50 µM; in experiment [13], 300 µM; in [14], 400 µM; in experiment [15] it was 600 ± 30 µM; in experiment [16], 600 µM. The IC50 in experiment [17] and in [18] was 500 µM each time.

As for `COc1cc([C@@H]2c3cc4c(cc3[C@@H](O[C@@H]3O[C@@H]5CO[C@@H](C)O[C@H]5[C@H](O)[C@H]3O)[C@H]3COC(=O)[C@H]23)OCO4)cc(OC)c1O` [Etoposide, reference compound], the IC50 in experiment [5] amounted to 89 µM; in experiment [16] it was 85 µM.

Consider `O=C(O)c1cc2cc(Cl)cc(Cl)c2oc1=O` [Compound IIIg, 6,8-dichloro-coumarin-3-carboxylic acid], for which the IC50 was 300 µM in experiment [1]; 480 µM in experiment [2]; 260 µM in experiment [3]; 420 µM in [4]; 250 µM in experiment [5]; 300 µM in the experiment with human neuroma cells D54. Further, the IC50 worked out at 250 µM in experiment [6]; 350 µM in experiment [7]; 460 µM in experiment [8]; 410 µM in experiment [9]; 350 µM in experiment [10]; 500 µM in the experiment on mouse melanoma cells B16. In addition, the IC50 was 310 µM in experiment [11]; 400 µM in [12]; 380 µM in experiment [13]; 300 µM in experiment [14]; 330 µM in [15]; 420 µM in experiment [16]. The results for the IC50 in experiment [17] and in experiment [18] were 490 µM and 430 µM, respectively.

For the compound `O=c1c(-c2ccc(O)cc2)coc2cc(O)cc(O)c12` [Genistein, reference compound], in experiment [13], the IC50 amounted to 135 µM.

(Values after US9518038B2, “Condensation product of theanine derivative and carboxylic acid coumarin derivative, its intermediate, preparation method and use thereof” (SHANDONG YINGDONG YINGHAO BIOTECHNOLOGY, INC., priority 2012, dated 2016).)
